The source of these data is US20170290774A1, “NEUROKININ-1 RECEPTOR ANTAGONIST COMPOSITION FOR TREATMENT OF DISEASES AND CONDITIONS OF THE RESPIRATORY TRACT” (PLUS VITECH, S.L., priority 2014, published 2017).

Common to all, as to assay type: physicochemical
Settings in all cases: 25° C.

The nature of series [1]: Saturation concentration in olive oil:ethanol (9:1). The method, then: (§1) Each of said mixtures was continuously and gently stirred for 10 minutes at ambient temperature (25° C.) and then maintained at rest for 60 minutes. The saturation concentration was considered to be that which was immediately less than a concentration where deposition was observed, but in which no deposition of the active ingredient was observed.

Series [2] is described as follows: Saturation concentration of NK1 receptor antagonists in olive oil. The method, then:
Each of said mixtures was continuously and gently stirred for 10 minutes at ambient temperature (25° C.) and then maintained at rest for 60 minutes. The saturation concentration was considered to be that which was immediately lower in the aforementioned series than a concentration where deposition was observed, but in which no deposition of the active ingredient was observed.

Series [3] can be described thus: Saturation concentration in different oils (soy, sunflower, rapeseed). The protocol:
as §1

As to `CC(=O)N1CCN([C@H]2CCN(C(=O)N(C)[C@H](C)c3cc(C(F)(F)F)cc(C(F)(F)F)c3)[C@@H](c3ccc(F)cc3C)C2)CC1` [Casopitant], the Saturation concentration is listed as 65 nM in series [1]; 40 nM in series [2]; 70 nM in series [3] (Rapeseed oil); 60 nM in series [3] (Soy oil); 60 nM in series [3] (Sunflower oil).

Consider `CC(=O)N[C@@H](Cc1c[nH]c2ccccc12)C(=O)OCc1cc(C(F)(F)F)cc(C(F)(F)F)c1` [L-732,138], for which the Saturation concentration in series [1] turned out to be 100 nM; in series [2], 80 nM; in series [3] (Rapeseed oil), 90 nM; in series [3] (Soy oil), 90 nM; in series [3] (Sunflower oil), 80 nM.
